Measured values: article PMC5000617, “Antiproliferative and Pro-Apoptotic Effect of Novel Nitro-Substituted Hydroxynaphthanilides on Human Cancer Cell Lines” (International Journal of Molecular Sciences, 2016)

Experiments:
THP-1 cells [1] = test: Flow cytometric cell cycle analysis (PI), THP-1; type: cell-based, human; settings: THP-1, 24 h
Method: (§1) In order to determine at which stage of the cell cycle these compounds induce cell growth inhibition, flow cytometric analyses of cell cycle profiles in THP-1 and MCF-7 cell lines were performed. […] Therefore, THP-1 and MCF-7 cells were treated for 24 h with the compounds at concentrations of 2.5, 5, and 10 μM, respectively. In general, we detected a qualitatively similar effect on the distribution of cells in cell cycle phases following the treatment with compounds 2 and 6 in both leukaemia and breast carcinoma cells. […] This was in concert with a simultaneous decrease in the number of cells observed in the S phase compared to the drug-free control, while the percentage of cells in the G2/M phase remained unchanged.
(§2) THP-1 and sub-confluent MCF-7 cells were treated and subsequently incubated with indicated concentrations of compounds 2 and 6 for 24 h. After the incubation, cells were washed twice in PBS (pH 7.4), fixed in 70% ethanol and stored at −20 °C overnight. Fixed cells were collected by centrifugation, and supernatant was discarded. The cell pellet was washed twice with PBS and incubated with RNaseA (0.02 mg/mL) and 0.05% (v/v) Triton X-100 in PBS for 30 min at 37 °C. After the nuclei staining with propidium iodide (PI) (0.04 mg/mL), the cell cycle distribution was analysed using a flow cytometer Cell Lab Quanta SC (Beckman Coulter, Brea, CA, USA). The quantification of cell cycle distribution was carried out using software MultiCycle AV (Phoenix Flow System, San Diego, CA, USA). A total number of 2 × 10^4 cells was analysed per sample.

cyclin B1 [2] = test: Western blot of cyclin B1 in THP-1 cells; type: cell-based, human; settings: THP-1, 24 h
Method: (§3) Additionally, the cell cycle analysis allows determining the presence of a subdiploid cell population as a characteristic marker of cells with fractional DNA content. A significant increase (p < 0.001) of the sub-G1 peak was found only after the treatment with 5 µM of compound 2 in THP-1 cells, where an approximately eight-fold increase was observed compared to the drug-free control (Figure 4).
(§4) For Western blotting, cells were washed with PBS and lysed in lysis buffer (100 mM Tris-HCl, pH = 6.8; 20% glycerol; 1% SDS) containing protease and phosphatase inhibitor cocktails. Protein concentration was measured using Roti®-Quant universal (Carl Roth, Karsruhe, Germany) according to the manufacturer’s instructions. Cell lysates were supplemented with bromophenol blue (final concentration 0.01% (w/v)) and β-mercaptoethanol (final concentration 1% (v/v)) prior to being heated for 5 min at 95 °C. Equal amounts of protein (10 μg) were loaded into a 12% polyacrylamide gel, separated by SDS-polyacrylamide gel electrophoresis and subsequently electrotransferred onto nitrocellulose membranes. Reversible Ponceau S. staining was performed to assess equal sample loading. […] The intensity of bands was semi-quantitatively analysed using the ImageJ software (National Institute of Mental Health, Bethesda, MD, USA).

MCF-7 cells [3] = test: WST-1 cell proliferation assay, MCF-7; type: cell-based, human
Method: (§5) Initially, we examined the effect of six nitro-substituted hydroxynaphthanilides on the proliferation of human leukaemia and breast carcinoma cell lines, using Water Soluble Tetrazolium Salts-1 (WST-1) assay. For such analyses, THP-1 and MCF-7 cells were treated with the compounds at concentrations ranging from 0.5 to 20 μM for 24 h. […] The inhibitory effect of 2 and 6 was statistically significant (p < 0.001) starting from the concentration of 2.5 and 5 μM in THP-1 and MCF-7 cells, respectively. From the concentration-response curves, the IC50 values were determined.
(§6) THP-1 human monocytic leukemia cell line, MCF-7 human breast adenocarcinoma cells and 3T3-L1 mouse embryonic fibroblast were purchased from the European Collection of Cell Cultures (ECACC, Salisbury, UK). Cells were routinely tested for the absence of mycoplasma (Hoechst 33258 staining method). THP-1 cells were maintained in RPMI 1640 culture medium containing 2 mM L-glutamine; MCF-7 and 3T3-L1 cells were cultured in DMEM medium. All of the culture media were supplemented with 10% heat-inactivated FBS and antibiotics (100 U/mL penicillin and 100 μg/mL streptomycin). Cells were maintained at 37 °C in a humidified atmosphere containing 5% CO2.
(§7) Cell proliferation was evaluated using Cell Proliferation Reagent WST-1 (2-(4-iodophenyl)-3-(4-nitrophenyl)-5-(2,4-disulfophenyl)-2H-tetrazolium) (Roche Diagnostics, Mannheim, Germany) according to the manufacturer´s instructions. THP-1 (5 × 10^4 cells/100 μL culture medium per well), MCF-7 cells (1 × 10^4 cells/100 μL per well), and 3T3-L1 (2.5 × 10^3 cells/100 μL per well) were cultured in 96-well plates in triplicate. The measurement was performed using Synergy 2 Multi-Mode Microplate Reader (BioTek, Winooski, VT, USA) after 24 h incubation of cells with tested compounds dissolved in DMSO and subsequently in RPMI 1640 to final concentration ranging 0.5–20 μM in the assays. Cell viability was assessed by dye exclusion test. THP-1 (2 × 10^5 cells/mL per well) and MCF-7 cells (8 × 10^4 cells/mL per well) were incubated in 24-well plates with the indicated concentrations of compounds for 24 h. The number of viable cells was determined using hemocytometer after their staining with a solution of erythrosin B (0.1% erythrosin B (w/v) in PBS). The assays were conducted in triplicate. The IC50 and LC50 values were calculated from fitted concentration-response curves using GraphPad Prism 5.00 software (GraphPad Software, San Diego, CA, USA).

cyclin E1 [4] = test: Western blot of cyclin E1 in MCF-7 cells; type: cell-based, human; settings: MCF-7, 24 h
Method: as §3, §4

THP-1 cells [5] = test: Erythrosin B dye exclusion viability test, THP-1; type: cell-based
Method: (§8) Subsequently, for the comparison of the antiproliferative and cytotoxic effects we assessed the cell viability after 24 h treatment with compounds 1–6 in both tumour cell lines using the dye exclusion test.
as §6, §7

[6] = Erythrosin B dye exclusion viability test, THP-1; type: cell-based; settings: human, THP-1 cells; erythrosin B exclusion test, 24 h, mean ± SD; read-out: THP-1 LC50
Method: as §8, §6, §7

MCF-7 cells [7] = test: Erythrosin B dye exclusion viability test, MCF-7; type: cell-based; settings: MCF-7, 24 h, vs control
Method: as §8, §6, §7

[8] = Erythrosin B dye exclusion viability test, MCF-7; type: cell-based; settings: human, MCF-7 cells; erythrosin B exclusion test, 24 h, mean ± SD; read-out: MCF-7 LC50
Method: as §8, §6, §7

MCF-7 cells [9] = test: Flow cytometric cell cycle analysis (PI), MCF-7; type: cell-based, human; settings: MCF-7, 24 h
Method: as §1, §2

THP-1 cells [10] = test: WST-1 cell proliferation assay, THP-1; type: cell-based, human
Method: as §5, §6, §7

cyclin E1 [11] = test: Western blot of cyclin E1 in THP-1 cells; type: cell-based, human; settings: THP-1, 24 h
Method: as §3
For Western blotting, cells were washed with PBS and lysed in lysis buffer (100 mM Tris-HCl, pH = 6.8; 20% glycerol; 1% SDS) containing protease and phosphatase inhibitor cocktails. Protein concentration was measured using Roti®-Quant universal (Carl Roth, Karsruhe, Germany) according to the manufacturer’s instructions. Cell lysates were supplemented with bromophenol blue (final concentration 0.01% (w/v)) and β-mercaptoethanol (final concentration 1% (v/v)) prior to being heated for 5 min at 95 °C. Equal amounts of protein (10 μg) were loaded into a 12% polyacrylamide gel, separated by SDS-polyacrylamide gel electrophoresis and subsequently electrotransferred onto nitrocellulose membranes. Reversible Ponceau S. staining was performed to assess equal sample loading. Then, the membranes were blocked with 5% non-fat dry milk in TBST (10 mM Tris-HCl pH = 7.5, 150 mM NaCl, 0.1% (v/v) Tween-20) and appropriate primary and secondary antibodies were used for immunodetection. The proteins were visualized by ECL Plus reagent according to the manufacturer’s instructions. The intensity of bands was semi-quantitatively analysed using the ImageJ software (National Institute of Mental Health, Bethesda, MD, USA).

3T3-L1 cells = test: WST-1 cell proliferation assay, 3T3-L1 non-tumour cells; type: cell-based, mouse
Method: as §6, §7

cyclin B1 [12] = test: Western blot of cyclin B1 in MCF-7 cells; type: cell-based, human; settings: MCF-7, 24 h
Method: as §3, §4

**Q.** Which results are given for `O=C(Nc1ccc([N+](=O)[O-])cc1)c1c(O)ccc2ccccc12` [Compound 6, 2-hydroxy-N-(4-nitrophenyl)-naphthalene-1-carboxamide]?
**A.** distribution of cells in cell cycle phases (THP-1 cells [1]): induced accumulation of cells in G1 phase; sub-G1 / sub-diploid population (THP-1 cells [1]): no significant increase of sub-diploid population; total protein levels of cyclin B1 (cyclin B1 [2]): total protein levels of cyclin B1 were not changed; IC50 (MCF-7 cells [3]; Homo sapiens, MCF7, WST-1, 24 h, 0.5-20 μM, mean ± SD): 5.23 ± 0.802 µM; effect on cell proliferation (MCF-7 cells [3]; MCF-7, 0.5-20 μM, 24 h): inhibit cell growth in both cell lines in a dose-dependent manner; concentration from which the inhibitory effect on proliferation was statistically significant (p < 0.001) (MCF-7 cells [3]; MCF-7, 24 h): 5 µM; expression of cyclin E1 (cyclin E1 [4]): dose-dependent decrease in expression of cyclin E1; LC50 compared to IC50 (THP-1 cells [5]): 2–3 fold; CC50 at 24 h [6]: 9.98 ± 0.349 µM; effect on cell viability (MCF-7 cells [7]): Neither compound 2 nor 6 reduced cell viability under 50%; CC50 at 24 h [8]: > 20 µM; distribution of cells in cell cycle phases (MCF-7 cells [9]): induced accumulation of cells in G1 phase; sub-G1 / sub-diploid population (MCF-7 cells [9]): no significant increase of sub-diploid population; IC50 (THP-1 cells [10]; Homo sapiens, THP-1, WST-1, 24 h, 0.5-20 μM, mean ± SD): 5.8 ± 0.37 µM; effect on cell proliferation (THP-1 cells [10]; THP-1, 0.5-20 μM, 24 h): inhibit cell growth in both cell lines in a dose-dependent manner; concentration from which the inhibitory effect on proliferation was statistically significant (p < 0.001) (THP-1 cells [10]; THP-1, 24 h): 2.5 µM; expression of cyclin E1 (cyclin E1 [11]): dose-dependent decrease in expression of cyclin E1; levels of cyclin E1 low molecular weight (LMW E1) isoform (cyclin E1 [11]): more pronounced reduction of LMW E1 isoform levels; effect on cell proliferation (3T3-L1 cells; 3T3-L1, 24 h): did not decrease cell growth at any of concentrations used; IC50 (3T3-L1 cells; Mus musculus, 3T3-L1, WST-1, 24 h, non-tumour cells, mean ± SD): > 20 µM; total protein levels of cyclin B1 (cyclin B1 [12]): total protein levels of cyclin B1 were not changed
